Results from patent US5814666A, “Encapsulated and non-encapsulated nitric oxide generators used as antimicrobial agents” (The United States as represented by the Department of …, priority 1995, dated 1998).
In brackets after ≈: the same amount, converted by molar mass. Counter-ions that a name gives are not always drawn. Like-named read-outs stand apart in the source and are kept apart here.

How the values were obtained:
[1] = Half-life of nitric oxide generators at pH 7.4 and 37° C. (Table 1)
[2] = pH 7.4
[3] = Stability of nitric oxide generators in PBS at room temperature, absorbance (Table 5); conditions: for Initial Abs. / 24-hour Abs.: PBS, at peak wavelength; for Initial Abs.: immediately; for 24-hour Abs.: room temperature; for degraded at 24 h: pbs
[4] = system: tumor cells; conditions: tumor cells in vitro; in words; cited from earlier work
[5] = system: Mycobacterium tuberculosis; conditions: direct delivery; in words; cited from earlier work
[6] = system: Francisella tularensis; format: in vivo, mice
[7] = system: DNA synthesis; conditions: in words; cited from earlier work
[8] = in words; cited from earlier work
[9] = system: Plasmodium falciparum; assay: Anti-malaria in vitro screen, overall result; conditions: in words
[10] = system: P. falciparum clone CDC/Sierra Leone I (D6); assay: Anti-malaria in vitro screen, P. falciparum clone D6; conditions: Plasmodium falciparum
[11] = system: P. falciparum clone CDC/Indochina III (W2); assay: Anti-malaria in vitro screen, P. falciparum clone W2; conditions: Plasmodium falciparum
[12] = system: Leishmania major; assay: Blocking Leishmania major growth in vitro compared with glucantime; format: cell-based; conditions: equivalent molar concentrations of NONOates and glucantime
[13] = system: Francisella tularensis; assay: microbe, parasite or virus in culture; format: cell-based; conditions: read-out: IC50 (growth inhibition)
[14] = system: Candida albicans; assay: microbe, parasite or virus in culture; format: cell-based; conditions: read-out: IC50 (growth inhibition)
[15] = system: Leishmania major; assay: microbe, parasite or virus in culture; format: cell-based; conditions: read-out: IC50 (growth inhibition)
[16] = system: macrophages; assay: NO2^- / NO release by macrophages after exposure to liposome-encapsulated or non-encapsulated NONOates (Table 8); conditions: non-encapsulated; 50 μM, 1 hr incubation, culture medium after 24 hrs
[17] = physchem; conditions: pH 7.4
[18] = pH 7.4, 37° C., result in words
[19] = experiment #1, IP 200 μM two days after inoculation

In the case of `C=CCON=[N+]([O-])NC(C)C` [A-IPA/NO], the Half-life [1, 18] is reported as “stable”.
Compound `N.N.O=S(=O)(O)[N+]([O-])=NO` [SULFI/NO] has a Half-life [2] of 7 min.
Work on `CCN(CC)[N+]([O-])=NOS(=O)(=O)N(C)C` [S-DEA/NO] yielded a Half-life ([1]; pH 7.4) of 30 min.
For `COCON=[N+]([O-])NC(C)C` [MOM-IPA/NO], the Half-life [1, 18] was “stable”, the “Initial Abs.” value [3] was 3.530 and the “24-hour Abs.” value [3] was 3.340. The degraded at 24 h [3] was 5%.
In the case of `CCCON=[N+]([O-])N(CC)CC` [P-DEA/NO], the Half-life [1, 18] is reported as “stable”.
For `CCON=[N+]([O-])N(CC)CC` [E-DEA/NO], the Half-life [1, 18] was “stable”.
For nitric oxide, the “inhibition of DNA synthesis and mitochondrial respiration” value [4] is listed as “inhibit DNA synthesis and mitochondrial respiration of tumor cells in vitro” and the “killing of intracellular pathogens” value [5] is listed as “kills intracellular pathogens such as Mycobacterium tuberculosis”.
In the case of `C=CCON=[N+]([O-])N(CC)CC` [A-DEA/NO], the Half-life [1, 18] is reported as “stable”.
For `CCN(CC)[N+]([O-])=NOCCBr` [BE-DEA/NO], the Half-life [1, 18] was “stable”.
In the case of `CCN(CC)[N+]([O-])=NO` [DEA/NO, diethylamine-bis(nitric oxide) adduct sodium salt], the Half-life ([1]; pH 7.4) is reported as 2 min, the “#Dead/Total” value [6, 19] is reported as 5/5 and the “% Protected” value [6, 19] is reported as 0%.
In the case of `CC(=O)N[C@H](C(=O)O)C(C)(C)SN=O` (racemic) [S-nitroso-N-acetylpenicillamine], the “inhibition of DNA synthesis” value [7] is listed as “effective at inhibiting DNA synthesis”.
In the case of `CON=[N+]([O-])NC(C)C` [M-IPA/NO], the Half-life [1, 18] is reported as “stable”.
With `CCN(CC)[N+]([O-])=NOC` [M-DEA/NO] the Half-life [1, 18] was “stable”, the “Initial Abs.” value [3] was 3.454 and the “24-hour Abs.” value [3] was 3.020. It also gave a degraded at 24 h [3] of 14%.
For `CCN(CC)[N+]([O-])=NOCOC` [MOM-DEA/NO], the Half-life ([1]; pH 7.4) was 7200 min, the “#Dead/Total” value [6, 19] was 1/5 and the “% Protected” value [6, 19] was 80%. The “#Dead/Total” value ([6]; experiment #2, IP 200 μM two days after inoculation) was 1/5, the “% Protected” value ([6]; experiment #2, IP 200 μM, control 40% protected) was 80% and the anti-microbial effects ([6]; two subsequent experiments, in words) was “not found to be significant in two subsequent experiments”.
In the case of `[Na+].[Na+].[O-][N+]([O-])=NO` [OXI/NO, sodium trioxodinitrate(II) monohydrate], the Half-life ([1]; pH 7.4, 37° C.) is reported as 2 min.
For `CCN(CC)[N+]([O-])=NOCCO` [HE-DEA/NO], the Half-life [1, 18] was “stable”.
In the case of `O=[N+]([O-])OCC(CO[N+](=O)[O-])O[N+](=O)[O-]` [glyceryl trinitrate], the tolerance / toxicity [8] is listed as “development of tolerance”.
In the case of `CCOC(=O)CON=[N+]([O-])NC(C)C` [CEM-IPA/NO], the Half-life [1, 18] is reported as “stable”.
In the case of `CCN(CC)[N+]([O-])=NOCOC(C)=O` [acetoxy-DEA/NO], the anti-malarial effectiveness [9] is reported as “effective”, the IC50 [10] is reported as 0.267 µg/mL (≈ 1.3 µM) and the IC90 [10] is reported as 0.295 µg/mL (≈ 1.44 µM). For the same compound, the IC50 [11] was 17.7 µg/mL (≈ 86.5 µM), the IC90 [11] was 19.2 µg/mL (≈ 93.4 µM) and the “times more effective than glucantime at blocking Leishmania major growth” value (shortened to “times more effective than glucantime”) [12] was 8.9 times. The Half-life [1, 18] was “stable”, the “#Dead/Total” value [6, 19] was 2/4 and the “% Protected” value [6, 19] was 50%.
For `CCN(CC)[N+]([O-])=NOCC(C)O` (stereo not drawn) [HP-DEA/NO], the Half-life [1, 18] was “stable”.
`NCCCNCCCCN(CCCN)[N+]([O-])=NO` [SPER/NO, spermine-bis(nitric oxide) adduct monohydrate] gave an IC50 [13] of less than 10 µM, an IC50 [14] of less than 100 µM and an IC50 [15] of less than 100 µM. For the same compound, the “NO2 --(nmol/ml)” value [16] was 1 ± 1 nmol/mL, the anti-malarial effectiveness [9] was “effective” and the IC50 [10] was 5.31 µg/mL. The IC90 [10] was 9.53 µg/mL, the IC50 [11] was 5.65 µg/mL and the IC90 [11] was 10 µg/mL. The “times more effective than glucantime” value [12] was 6.7 times and the Half-life [17] was 39 min.
In the case of `C=CON=[N+]([O-])N(CC)CC` [V-DEA/NO], the Half-life [1, 18] is reported as “stable”.
Work on `NCCN(CCN)[N+]([O-])=NO` [DETA/NO] yielded an IC50 [13] of less than 100 µM, an IC50 [14] of less than 100 µM and an IC50 [15] of less than 10000 µM. The “NO2 --(nmol/ml)” value [16] was 0 nmol/mL, the IC50 [10] was 4.83 µg/mL (≈ 29.6 µM) and the IC90 [10] was 10.1 µg/mL (≈ 62 µM). For the same compound, the IC50 [11] was 0.037 µg/mL (≈ 0.227 µM), the IC90 [11] was 0.094 µg/mL (≈ 0.576 µM) and the “times more effective than glucantime” value [12] was 7.2 times.
